In patent US20050049204A1, “Compounds for the treatment of flaviviridae infections” (priority 2003, published 2005):
Read-outs that look alike come from different tables or passages of the source.

Legend:
[1] = system: HCV replicon-containing Huh7 cell line; experiment: Dynamics of replicon cell growth (cell count) over a 7-day period
[2] = system: HCV replicon RNA in Huh7 cells; experiment: HCV RNA levels in replicon cells over a 7-day period; format: cell-based, hepatitis C virus (HCV)
[3] = system: HCV replicon RNA in Huh7 cells; experiment: Reversal studies with natural nucleosides: HCV RNA; format: cell-based, hepatitis C virus (HCV)
Experimental: (§1) Incubation times differed according to the type of experiment.
(§2) Cells were incubated with the test compound and, simultaneously, the natural ribo- or 2′-deoxy nucleosides (adenosine, guanosine (G), cytidine (C), uridine (U), 2′-deoxycytidine (dC), 2′-deoxyuridine, thymidine, 2′-deoxyguanosine (dG), and 2′-deoxyadenosine) (Table 2).

[4] = system: rRNA in HCV-replicon RNA-containing Huh7 cells; experiment: rRNA levels in HCV replicon cells (cellular toxicity), Q-RT-PCR after 96 h; details: 100 μM
Experimental: HCV replicon cells were seeded in the presence of test compound at approximately 10^3 cells per well in a 96-well plate and incubated for 96 hours. rRNA and HCV RNA were quantified by Q-RT-PCR. ●: HCV RNA levels; ◯: rRNA levels; ▾: HCV RNA levels after correction (=subtraction of rRNA) for cellular toxicity. […] The plots shown are the mean results of at least three independent experiments. EC90 values as given in Table 1 are read from the HCV curves corrected for cellular toxicity.
HCV-replicon RNA-containing Huh7 cells (Clone A cells; Apath, LLC, St. Louis, Mo.) were kept in exponential growth in DMEM media (high glucose, no pyruvate) containing 10% fetal bovine serum, 1× non-essential amino acids (100 units/ml), penicillin-streptomycin (100 μg/ml), glutamine (0.292 mg/ml), and G418 (1,000 μg/ml). Antiviral assays were performed in the same medium without G418. […] Cells were seeded in a 6-well plate at 10^5 cells per well. Candidate antiviral compounds were tested as described (Stuyver, et al. “A ribonucleoside analogue that blocks the replication of bovine viral diarrhea and hepatitis C viruses in culture” Antimicrob. Agents Chemother., January 2003, 47 (1), 244-254). Incubation times differed according to the type of experiment. At the end of the incubation step, cells were counted using the trypan-blue exclusion method, and total cellular RNA was isolated (Rneasy 96 kit, Qiagen, CA). Replicon RNA and an internal control (TaqMan Ribosomal RNA Control Reagents, Applied Biosystems, CA) were amplified in a single-step, multiplex RT-PCR protocol, as recommended by the manufacturer and as described (Stuyver, et al. “A ribonucleoside analogue that blocks the replication of bovine viral diarrhea and hepatitis C viruses in culture” Antimicrob. Agents Chemother., January 2003, 47 (1), 244-254).
Replicon cells were incubated in the absence or presence of these anti-metabolites for 96 hours, after which intracellular rRNA and HCV RNA levels were quantified (Table 1).

[5] = system: HCV-replicon RNA-containing Huh7 cells (HCV RNA); experiment: HCV replicon assay: HCV RNA quantified by Q-RT-PCR after 96 h of compound exposure; format: cell-based, hepatitis C virus (HCV); details: for EC90: read-out: Corrected HCV RNA EC90
Experimental: as §1

[6] = system: rRNA in HCV replicon Huh7 cells; experiment: Reversal studies with natural nucleosides: rRNA; format: cell-based; details: for log10 reduction rRNA: no nucleoside
Experimental: as §1, §2

[7] = seven-day assay, tested at approximately EC90 value

C[C@@]1(O)[C@H](O)[C@@H](CO)O[C@H]1n1ccc(N)nc1=O [2′C—CH3—C, 2′-C-methyl-cytidine]
effect on cell proliferation ([1]; 100 μM, 7-day period): no
reducing the HCV RNA levels ([2]; 100 μM, 7-day period): very potent
log10 reduction HCV including natural nucleoside ([3]; 25 μM + C at 50 μM): 0.48 ± 0.02 log10
Log10 RNA reduction (100 μM) rRNA [4]: −0.02 ± 0.05 log10
log reduction at 10 µM ([5]; Hepatitis C virus, Huh-7, 10 μM, 96 h, corrected by subtraction of rRNA, read-out: Corrected HCV RNA log10 reduction at 10 μM): 1
log reduction at 100 µM ([5]; Hepatitis C virus, Huh-7, 100 μM, 96 h, corrected by subtraction of rRNA, read-out: Corrected HCV RNA log10 reduction at 100 μM): 2.21 ± 0.47
log reduction at 100 µM ([5]; Hepatitis C virus, Huh-7, 100 μM, 96 h, read-out: Log10 RNA reduction (100 μM) HCV): 2.2 ± 0.52
EC90 ([5]; Hepatitis C virus, Huh-7, 96 h, read from HCV curves corrected for rRNA reduction): 10.4 µM
log10 reduction rRNA including natural nucleoside ([6]; 25 μM + C at 50 μM): 0.14 ± 0.04 log10
log10 reduction rRNA ([6]; 25 μM): −0.01 ± 0.02 log10

NC(=O)c1[nH]nc([C@@H]2O[C@H](CO)[C@@H](O)[C@H]2O)c1O [pyrazofurin]
effect on cell growth [1, 7]: minimal effect
inhibition of the HCV RNA replication [2, 7]: very potent inhibition
log10 reduction HCV including natural nucleoside ([3]; 100 μM + U at 50 μM): 0.35 ± 0.03 log10
log10 reduction HCV ([3]; 100 μM, no nucleoside): 1.88 ± 0.05 log10
Log10 RNA reduction (100 μM) rRNA [4]: 0.42 ± 0.03 log10
Corrected HCV RNA log10 reduction at 10 μM ([5]; 10 μM, 96 h, corrected by subtraction of rRNA): 1.16 ± 0.21 log10
Corrected HCV RNA log10 reduction at 100 μM ([5]; 100 μM, 96 h, corrected by subtraction of rRNA): 1.46 ± 0.08 log10
EC90 ([5]; Hepatitis C virus, Huh-7, 96 h): 3.8 µM
log10 reduction rRNA including natural nucleoside ([6]; 100 μM + U at 50 μM): −0.01 ± 0.04 log10
log10 reduction rRNA ([6]; 100 μM): 0.42 ± 0.03 log10
